The target in assay [1] is T1, Proteinase-activated receptor 1 (Homo sapiens, UniProt P25116).
T1 sequence (P25116 whole entry): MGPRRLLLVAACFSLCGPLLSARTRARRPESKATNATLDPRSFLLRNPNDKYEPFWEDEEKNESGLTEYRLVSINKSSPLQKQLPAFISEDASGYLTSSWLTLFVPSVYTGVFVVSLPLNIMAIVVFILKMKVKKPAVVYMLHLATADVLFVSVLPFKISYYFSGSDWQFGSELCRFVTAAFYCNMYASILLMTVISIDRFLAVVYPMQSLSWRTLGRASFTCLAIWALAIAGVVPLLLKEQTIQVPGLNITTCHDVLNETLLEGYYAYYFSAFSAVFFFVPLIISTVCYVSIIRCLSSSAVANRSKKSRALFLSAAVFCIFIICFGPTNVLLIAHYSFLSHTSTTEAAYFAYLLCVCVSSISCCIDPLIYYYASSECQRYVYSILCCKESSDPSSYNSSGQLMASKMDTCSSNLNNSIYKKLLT
The assay can be described thus: Inhibition of secretion of radiolabeled serotonin from washed human platelets stimulated by 1 nM thrombin. It counts as functional.

Assay [2] concerns the target T1, Proteinase-activated receptor 1. Put plainly: Displacement of [3H]SFFLRR-NH2 from human thrombin receptor PAR-1. (Displacement assays read how much labelled ligand stays bound in the presence of the test substance.)
The target is the same in assay [3]. Put plainly: Antagonistic activity against thrombin receptor, inhibition of secreted radiolabeled [3H]5-HT from washed human platelets stimulated by 3 uM thrombin receptor activating peptide (TRAP). It counts as functional.
Assay [4] concerns the target Prothrombin (Homo sapiens, UniProt P00734). Put plainly: Compound was tested for thrombin catalytic activity; no inhibition was observed.
For assay [5], the target named is T2, Proteinase-activated receptor 1 (Homo sapiens) (UniProt P25116).
T2 sequence (whole entry): T1 sequence (P25116 whole entry)
Put plainly: Inhibition of secretion of radiolabeled concentration. It counts as functional. Particulars: concentration not given here.

We go through 41 molecules from ChEMBL document CHEMBL1136056, “Discovery of a nonpeptidic small molecule antagonist of the human platelet thrombin receptor (PAR-1)” (Bioorg Med Chem Lett, 2002).

By IC50 is commonly meant the concentration at which inhibition is half-maximal. High values mean lower potency, low ones higher potency. Usually Ki stands for the dissociation constant of the complex between target and ligand, obtained from inhibition or displacement. The low end stands for higher affinity, the high end for lower affinity. One may read the inhibition as how much of the control response was suppressed. Read a low inhibition as a weak effect.

Take `Clc1ccc(-c2cc(N(CCCN3CCCCCC3)Cc3ccc4c(c3)OCO4)on2)cc1`: the IC50 in assay [1] was 4250 nM; in assay [2], 990 nM; in assay [3], 1240 nM.

Molecule `COc1cccc(CN(CCCC2CCCCC2)c2cc(-c3ccccc3)no2)c1` came in with an IC50 in assay [3] of more than 10000 nM.

As to `COc1cccc(-c2cc(N(CCCN3CCCCCC3)Cc3ccc4c(c3)OCO4)on2)c1`, the IC50 in assay [1] came to 2240 nM; in assay [2], 260 nM; in assay [3], 130 nM.

Take `c1ccc(-c2cc(N(CCCN3CCCCC3)Cc3cccc4ccccc34)on2)cc1`: in assay [3], it took 500 nM to reach half-maximal inhibition (IC50).

As for `COc1cccc(CN(CCCN2CCC2)c2cc(-c3ccccc3)no2)c1`, the IC50 in assay [3] is more than 10000 nM.

For `Ic1ccc(-c2cc(N(CCCN3CCCCCC3)Cc3ccc4c(c3)OCO4)on2)cc1`, the figures for the IC50 in assay [1], in assay [2] and in assay [3] were 880 nM, 470 nM and 90 nM, respectively.

In the case of `C[S+]([O-])c1ccc(-c2cc(N(CCCN3CCCCCC3)Cc3ccc4c(c3)OCO4)on2)cc1` (centres undefined), the half-maximal inhibitory concentration (IC50) in assay [3] amounted to 3700 nM.

Molecule `CS(=O)(=O)c1ccc(-c2cc(N(CCCN3CCCCCC3)Cc3ccc4c(c3)OCO4)on2)cc1` registered an IC50 in assay [3] of 3200 nM.

For the molecule `c1ccc(-c2cc(N(CCCN3CCCCC3)Cc3ccc4ccccc4c3)on2)cc1`, in assay [3], the IC50 turned out to be 2000 nM.

Molecule `Cc1ccccc1-c1cc(N(CCCN2CCCCCC2)Cc2ccc3c(c2)OCO3)on1` returned an IC50 in assay [3] of 3220 nM.

In the case of `COc1cccc(CN(CCCN2CCCCCC2)c2cc(-c3ccccc3)no2)c1`, in assay [3], the IC50 came to 500 nM.

For `c1ccc(-c2ccc(-c3cc(N(CCCN4CCCCCC4)Cc4ccc5c(c4)OCO5)on3)cc2)cc1`, 4440 nM corresponded to half-maximal inhibition in assay [3] (IC50).

As for `CC(C)N(CC(O)c1ccc(C#N)cc1)C(=O)Nc1ccccc1` (centres undefined), the IC50 in assay [3] came out at 12000 nM.

On to `N#Cc1cccc(-c2cc(N(CCCN3CCCCCC3)Cc3ccc4c(c3)OCO4)on2)c1`, for which the figures for the IC50 in assay [1], in assay [2] and in assay [3] were 1970 nM, 600 nM and 350 nM, respectively.

With `Cc1ccc(-c2cc(N(CCCN3CCCCCC3)Cc3ccc4c(c3)OCO4)on2)cc1`, the IC50 was 3200 nM in assay [1], 290 nM in assay [2] and 140 nM in assay [3].

`Fc1cccc(-c2cc(N(CCCN3CCCCCC3)Cc3ccc4c(c3)OCO4)on2)c1`: the IC50 in assay [1] worked out at 1180 nM; in assay [2] it was 770 nM; in assay [3], 140 nM.

For the molecule `Clc1cccc(CN(CCCN2CCCCC2)c2cc(-c3ccccc3)no2)c1`, the IC50 in assay [3] turned out to be 1000 nM.

`Fc1cc(F)cc(-c2cc(N(CCCN3CCCCCC3)Cc3ccc4c(c3)OCO4)on2)c1`: the Ki in assay [4] was more than 10000 nM. Also, the IC50 is 510 nM in assay [1], 150 nM in assay [2] and 90 nM in assay [3].

Regarding `COc1ccc(-c2cc(N(CCCN3CCCCCC3)Cc3ccc4c(c3)OCO4)on2)cc1`, the inhibition in assay [5] stood at 60%. Besides, the IC50 in assay [2] stood at 250 nM; in assay [3], 130 nM.

For `COc1cc(OC)cc(-c2cc(N(CCCN3CCCCCC3)Cc3ccc4c(c3)OCO4)on2)c1`, the IC50 in assay [1] turned out to be 1200 nM; in assay [2], 520 nM; in assay [3], 130 nM.

In assay [3], `c1ccc(-c2cc(N(CCN3CCCCCC3)Cc3cccc4ccccc34)on2)cc1` displayed an IC50 of 5000 nM. In other words, the single-digit micromolar range.

In the case of `CCCCN(CCCN1CCCCC1)c1cc(-c2ccccc2)no1`, in assay [3], the IC50 was more than 40000 nM.

Molecule `c1ccc(-c2cc(N(CCCCN3CCCCCC3)Cc3cccc4ccccc34)on2)cc1` returned an IC50 in assay [3] of 5000 nM. That is a single-digit micromolar value.

For the molecule `COc1ccc(-c2cc(N(CCCN3CCCCCC3)Cc3ccc4c(c3)OCO4)on2)cc1F`, the IC50 stood at 2140 nM in assay [1] and 70 nM in assay [3].

For the molecule `O=[N+]([O-])c1cccc(-c2cc(N(CCCN3CCCCCC3)Cc3ccc4c(c3)OCO4)[o+][n-]2)c1`, the IC50 in assay [1] is more than 10000 nM; in assay [2], 1020 nM; in assay [3], 830 nM.

Take `COc1ccc(-c2cc(N(CCCN3CCCCCC3)Cc3ccc4c(c3)OCO4)on2)cc1OC`: the IC50 stood at 4670 nM in assay [1], 1200 nM in assay [2] and 400 nM in assay [3].

In assay [3], `c1ccc(CN(CCCN2CCCCC2)c2cc(-c3ccccc3)no2)cc1` came in with an IC50 of 9000 nM.

On to `Clc1cccc(-c2cc(N(CCCN3CCCCCC3)Cc3ccc4c(c3)OCO4)on2)c1`, for which the IC50 in assay [1] came out at 910 nM; in assay [2] it was 1160 nM; in assay [3] it was 270 nM.

As for `COc1ccccc1-c1cc(N(CCCN2CCCCCC2)Cc2ccc3c(c2)OCO3)on1`, the IC50 in assay [2] was found to be 2210 nM; in assay [3], 2220 nM.

For `COc1cccc(CN(CCCN2CCCC2)c2cc(-c3ccccc3)no2)c1`, the IC50 in assay [3] amounted to 3300 nM.

Molecule `COc1cccc(CN(CCCN2CCCCC2)c2cc(-c3ccccc3)no2)c1` gave an IC50 in assay [3] of 1600 nM.

For the molecule `Fc1ccc(-c2cc(N(CCCN3CCCCCC3)Cc3ccc4c(c3)OCO4)on2)cc1F`, the results for the IC50 in assay [1], in assay [2] and in assay [3] were 2400 nM, 2140 nM and 500 nM, respectively.

Take `Fc1ccc(-c2cc(N(CCCN3CCCCCC3)Cc3ccc4c(c3)OCO4)on2)cc1`: the IC50 in assay [1] is more than 10000 nM; in assay [3] it was 1310 nM.

Take `CSc1ccc(-c2cc(N(CCCN3CCCCCC3)Cc3ccc4c(c3)OCO4)on2)cc1`: the values for the IC50 in assay [1] and in assay [3] were more than 4000 nM and 430 nM, respectively.

With `c1ccc(-c2cc(N(CCCN3CCCCC3)Cc3ccc4c(c3)OCO4)on2)cc1`, the IC50 in assay [3] worked out at 600 nM.

In assay [3], `c1ccc(-c2cc(N(CCCN3CCCCCC3)Cc3cccc4ccccc34)on2)cc1` showed an IC50 of 360 nM.

In turn, `Clc1ccccc1-c1cc(N(CCCN2CCCCCC2)Cc2ccc3c(c2)OCO3)on1` registered an IC50 in assay [3] of 2990 nM.

For `Cc1cccc(-c2cc(N(CCCN3CCCCCC3)Cc3ccc4c(c3)OCO4)on2)c1`, the inhibition in assay [5] was found to be 60%. Also, the IC50 in assay [2] is 890 nM; in assay [3] it was 120 nM.

For the molecule `c1ccc(-c2cc(N(CCCN3CCCCC3)CC3CCCCC3)on2)cc1`, the IC50 in assay [3] was more than 10000 nM.

The molecule `c1ccc(-c2cccc(-c3cc(N(CCCN4CCCCCC4)Cc4ccc5c(c4)OCO5)on3)c2)cc1` had an IC50 in assay [3] of 6420 nM.

As for `COc1cccc(CN(CCCN2CCCCCCC2)c2cc(-c3ccccc3)no2)c1`, in assay [3], the IC50 was more than 10000 nM.
